Results from article PMC4457528, “Identification of Novel Small Molecule Inhibitors of Oncogenic RET Kinase” (PLoS ONE, 2015).

What was measured:
Test in all cases: KinomeScan kinase panel, single concentration 10 µM
Assay type in all cases: binding
[1] = biological target: T1, KinomeScan kinase panel (Homo sapiens, UniProt P36507); settings: MEK2, 10 µM; read-out: score (%)
T1 construct: purchased DiscoveRx (KinomeScan)

[2] = biological target: T2, KinomeScan kinase panel (Homo sapiens, UniProt Q13873); settings: BMPR2, 10 µM
T2 construct: purchased DiscoveRx (KinomeScan)
T2 sequence (Q13873 27-1038): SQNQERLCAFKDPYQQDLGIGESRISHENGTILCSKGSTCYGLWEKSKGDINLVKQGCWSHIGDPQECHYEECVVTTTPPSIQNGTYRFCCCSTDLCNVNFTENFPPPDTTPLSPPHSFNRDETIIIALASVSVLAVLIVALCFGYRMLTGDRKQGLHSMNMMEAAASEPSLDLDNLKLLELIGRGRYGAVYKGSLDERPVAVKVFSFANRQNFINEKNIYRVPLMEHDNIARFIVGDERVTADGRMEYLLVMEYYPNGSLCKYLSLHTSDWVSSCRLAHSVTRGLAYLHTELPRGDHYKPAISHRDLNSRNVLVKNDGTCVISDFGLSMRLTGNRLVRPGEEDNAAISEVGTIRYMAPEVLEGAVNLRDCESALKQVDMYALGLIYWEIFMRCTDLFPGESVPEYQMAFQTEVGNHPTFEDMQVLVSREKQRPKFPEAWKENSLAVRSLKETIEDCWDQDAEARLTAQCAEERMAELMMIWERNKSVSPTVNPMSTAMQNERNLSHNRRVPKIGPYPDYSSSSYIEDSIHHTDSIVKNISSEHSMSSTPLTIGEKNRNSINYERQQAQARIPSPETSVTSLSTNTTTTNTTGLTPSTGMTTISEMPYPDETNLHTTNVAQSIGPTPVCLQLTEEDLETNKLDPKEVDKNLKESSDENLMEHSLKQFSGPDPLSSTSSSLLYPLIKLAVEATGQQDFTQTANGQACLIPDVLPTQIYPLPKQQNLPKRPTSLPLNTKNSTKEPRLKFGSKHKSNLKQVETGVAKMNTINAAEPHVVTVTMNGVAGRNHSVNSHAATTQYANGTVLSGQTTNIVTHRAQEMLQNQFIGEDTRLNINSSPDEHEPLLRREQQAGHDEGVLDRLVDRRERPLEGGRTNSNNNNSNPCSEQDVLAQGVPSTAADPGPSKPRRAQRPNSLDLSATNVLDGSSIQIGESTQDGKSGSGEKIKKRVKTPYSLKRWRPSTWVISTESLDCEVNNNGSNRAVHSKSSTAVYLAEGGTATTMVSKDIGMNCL

[3] = biological target: T3, KinomeScan kinase panel (Homo sapiens, UniProt P78356); settings: PIP5K2B, 10 µM; read-out: score (%)
T3 construct: purchased DiscoveRx (KinomeScan)
T3 sequence (P78356 1-416): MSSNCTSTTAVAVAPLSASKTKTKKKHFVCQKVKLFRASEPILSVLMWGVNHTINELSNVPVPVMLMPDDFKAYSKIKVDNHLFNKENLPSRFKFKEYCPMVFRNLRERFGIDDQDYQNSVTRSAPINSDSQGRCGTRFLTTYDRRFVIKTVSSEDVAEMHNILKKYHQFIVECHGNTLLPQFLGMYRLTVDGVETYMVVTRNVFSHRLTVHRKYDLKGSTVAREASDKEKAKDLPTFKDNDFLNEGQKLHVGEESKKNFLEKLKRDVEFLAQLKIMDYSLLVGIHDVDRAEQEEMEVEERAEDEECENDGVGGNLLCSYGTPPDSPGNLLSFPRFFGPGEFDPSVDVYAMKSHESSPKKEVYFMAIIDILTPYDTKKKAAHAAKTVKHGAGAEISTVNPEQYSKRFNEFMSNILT

[4] = biological target: T4, KinomeScan kinase panel (Homo sapiens, UniProt Q00537); settings: PCTK2, 10 µM; read-out: score (%)
T4 construct: purchased DiscoveRx (KinomeScan)

[5] = biological target: T5, KinomeScan kinase panel (Homo sapiens, UniProt Q9H1R3); settings: MYLK2, 10 µM; read-out: score (%)
T5 construct: purchased DiscoveRx (KinomeScan)

[6] = biological target: T6, KinomeScan kinase panel (Homo sapiens, UniProt Q8TD19); settings: NEK9, 10 µM; read-out: score (%)
T6 construct: purchased DiscoveRx (KinomeScan)
T6 sequence (Q8TD19 1-979): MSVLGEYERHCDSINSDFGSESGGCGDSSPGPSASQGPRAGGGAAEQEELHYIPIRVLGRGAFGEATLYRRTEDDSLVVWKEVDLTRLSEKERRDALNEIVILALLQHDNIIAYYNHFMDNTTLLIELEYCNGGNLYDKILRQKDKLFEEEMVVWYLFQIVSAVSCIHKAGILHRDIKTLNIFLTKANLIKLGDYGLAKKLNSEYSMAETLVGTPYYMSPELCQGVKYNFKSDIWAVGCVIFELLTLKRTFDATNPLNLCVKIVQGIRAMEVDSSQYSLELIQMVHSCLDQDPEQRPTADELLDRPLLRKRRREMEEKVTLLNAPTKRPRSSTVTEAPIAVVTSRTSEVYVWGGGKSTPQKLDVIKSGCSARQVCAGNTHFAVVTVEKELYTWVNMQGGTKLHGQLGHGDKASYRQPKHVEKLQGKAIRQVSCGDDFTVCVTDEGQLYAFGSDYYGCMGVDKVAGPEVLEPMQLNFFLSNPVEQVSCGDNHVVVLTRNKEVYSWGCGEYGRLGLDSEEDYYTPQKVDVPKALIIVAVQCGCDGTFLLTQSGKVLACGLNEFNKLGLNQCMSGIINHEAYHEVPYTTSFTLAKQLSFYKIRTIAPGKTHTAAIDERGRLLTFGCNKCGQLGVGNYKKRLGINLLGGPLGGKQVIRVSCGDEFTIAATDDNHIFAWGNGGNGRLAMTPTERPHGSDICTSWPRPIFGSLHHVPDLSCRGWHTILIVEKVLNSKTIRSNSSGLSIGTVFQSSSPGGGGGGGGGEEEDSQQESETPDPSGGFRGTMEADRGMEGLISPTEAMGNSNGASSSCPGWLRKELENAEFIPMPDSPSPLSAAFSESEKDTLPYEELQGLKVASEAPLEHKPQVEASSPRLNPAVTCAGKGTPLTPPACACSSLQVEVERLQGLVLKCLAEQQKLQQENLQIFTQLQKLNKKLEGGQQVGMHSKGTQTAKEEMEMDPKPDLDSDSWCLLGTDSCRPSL

[7] = biological target: T7, KinomeScan kinase panel (Homo sapiens, UniProt P10721, T670I/V559D); settings: KIT(V559D.T670I), 10 µM; read-out: score (%)
T7 construct: purchased DiscoveRx (KinomeScan)

[8] = biological target: T8, KinomeScan kinase panel (Homo sapiens, UniProt P42336); settings: PIK3CA, 10 µM; read-out: score (%)
T8 construct: purchased DiscoveRx (KinomeScan)

[9] = biological target: T9, KinomeScan kinase panel (Homo sapiens, UniProt P49336); settings: CDK8, 10 µM
T9 construct: purchased DiscoveRx (KinomeScan)
T9 sequence (P49336 whole entry): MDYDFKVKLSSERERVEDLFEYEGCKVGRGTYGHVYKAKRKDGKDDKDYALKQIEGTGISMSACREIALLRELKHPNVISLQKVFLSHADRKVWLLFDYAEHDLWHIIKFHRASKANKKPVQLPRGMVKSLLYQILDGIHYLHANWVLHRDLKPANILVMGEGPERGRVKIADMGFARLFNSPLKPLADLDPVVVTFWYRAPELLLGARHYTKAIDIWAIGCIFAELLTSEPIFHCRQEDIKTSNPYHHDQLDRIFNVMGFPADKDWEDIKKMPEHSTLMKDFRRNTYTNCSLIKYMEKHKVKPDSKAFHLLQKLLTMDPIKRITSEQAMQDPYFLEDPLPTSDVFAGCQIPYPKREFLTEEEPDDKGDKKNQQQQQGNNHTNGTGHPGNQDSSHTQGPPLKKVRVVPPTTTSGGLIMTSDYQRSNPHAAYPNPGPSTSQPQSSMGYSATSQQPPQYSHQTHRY

T8 sequence (P42336 whole entry): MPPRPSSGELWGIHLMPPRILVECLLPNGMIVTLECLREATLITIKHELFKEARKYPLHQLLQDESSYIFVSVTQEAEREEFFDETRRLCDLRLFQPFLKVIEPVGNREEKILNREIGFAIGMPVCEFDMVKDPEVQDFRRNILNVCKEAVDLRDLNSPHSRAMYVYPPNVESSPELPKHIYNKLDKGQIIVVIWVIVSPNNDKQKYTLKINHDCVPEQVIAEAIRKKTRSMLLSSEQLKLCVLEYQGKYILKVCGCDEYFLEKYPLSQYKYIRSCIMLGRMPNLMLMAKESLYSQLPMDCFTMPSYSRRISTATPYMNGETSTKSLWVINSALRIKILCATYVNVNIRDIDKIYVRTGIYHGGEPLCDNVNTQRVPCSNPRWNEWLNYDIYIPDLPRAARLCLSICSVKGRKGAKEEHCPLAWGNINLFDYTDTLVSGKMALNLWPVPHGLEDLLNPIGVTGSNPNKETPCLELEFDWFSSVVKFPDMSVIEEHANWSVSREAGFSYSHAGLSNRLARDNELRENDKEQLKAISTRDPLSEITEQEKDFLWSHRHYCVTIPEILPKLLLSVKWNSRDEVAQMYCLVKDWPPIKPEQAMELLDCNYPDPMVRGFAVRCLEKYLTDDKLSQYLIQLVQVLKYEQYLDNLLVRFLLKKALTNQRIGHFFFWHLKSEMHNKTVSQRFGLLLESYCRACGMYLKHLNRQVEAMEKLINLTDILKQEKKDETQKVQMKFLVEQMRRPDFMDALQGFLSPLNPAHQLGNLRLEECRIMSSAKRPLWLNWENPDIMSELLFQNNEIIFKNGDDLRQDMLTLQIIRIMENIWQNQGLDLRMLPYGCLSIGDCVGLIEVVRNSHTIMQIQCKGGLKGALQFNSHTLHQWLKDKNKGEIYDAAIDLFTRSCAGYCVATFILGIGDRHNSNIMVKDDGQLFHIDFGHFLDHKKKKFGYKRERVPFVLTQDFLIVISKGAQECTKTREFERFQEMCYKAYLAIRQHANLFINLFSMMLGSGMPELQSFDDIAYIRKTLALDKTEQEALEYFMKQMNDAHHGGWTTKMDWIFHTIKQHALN
T5 sequence (Q9H1R3 whole entry): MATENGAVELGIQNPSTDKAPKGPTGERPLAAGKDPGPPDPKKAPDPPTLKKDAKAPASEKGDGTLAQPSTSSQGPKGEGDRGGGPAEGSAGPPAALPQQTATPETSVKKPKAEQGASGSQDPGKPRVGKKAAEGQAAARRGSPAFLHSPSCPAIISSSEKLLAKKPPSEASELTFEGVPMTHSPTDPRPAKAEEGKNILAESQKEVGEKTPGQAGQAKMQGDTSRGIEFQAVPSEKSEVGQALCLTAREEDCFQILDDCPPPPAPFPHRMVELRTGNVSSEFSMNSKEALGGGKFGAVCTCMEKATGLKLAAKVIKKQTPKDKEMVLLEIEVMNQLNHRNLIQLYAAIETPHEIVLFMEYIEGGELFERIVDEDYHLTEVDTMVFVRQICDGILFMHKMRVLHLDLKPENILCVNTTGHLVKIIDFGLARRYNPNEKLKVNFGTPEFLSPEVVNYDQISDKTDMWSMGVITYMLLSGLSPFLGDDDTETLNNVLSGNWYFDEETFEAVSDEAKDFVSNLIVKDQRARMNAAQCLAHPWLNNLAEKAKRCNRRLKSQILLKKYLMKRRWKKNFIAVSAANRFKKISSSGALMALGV
T7 sequence (P10721 26-976 V559D/T670I): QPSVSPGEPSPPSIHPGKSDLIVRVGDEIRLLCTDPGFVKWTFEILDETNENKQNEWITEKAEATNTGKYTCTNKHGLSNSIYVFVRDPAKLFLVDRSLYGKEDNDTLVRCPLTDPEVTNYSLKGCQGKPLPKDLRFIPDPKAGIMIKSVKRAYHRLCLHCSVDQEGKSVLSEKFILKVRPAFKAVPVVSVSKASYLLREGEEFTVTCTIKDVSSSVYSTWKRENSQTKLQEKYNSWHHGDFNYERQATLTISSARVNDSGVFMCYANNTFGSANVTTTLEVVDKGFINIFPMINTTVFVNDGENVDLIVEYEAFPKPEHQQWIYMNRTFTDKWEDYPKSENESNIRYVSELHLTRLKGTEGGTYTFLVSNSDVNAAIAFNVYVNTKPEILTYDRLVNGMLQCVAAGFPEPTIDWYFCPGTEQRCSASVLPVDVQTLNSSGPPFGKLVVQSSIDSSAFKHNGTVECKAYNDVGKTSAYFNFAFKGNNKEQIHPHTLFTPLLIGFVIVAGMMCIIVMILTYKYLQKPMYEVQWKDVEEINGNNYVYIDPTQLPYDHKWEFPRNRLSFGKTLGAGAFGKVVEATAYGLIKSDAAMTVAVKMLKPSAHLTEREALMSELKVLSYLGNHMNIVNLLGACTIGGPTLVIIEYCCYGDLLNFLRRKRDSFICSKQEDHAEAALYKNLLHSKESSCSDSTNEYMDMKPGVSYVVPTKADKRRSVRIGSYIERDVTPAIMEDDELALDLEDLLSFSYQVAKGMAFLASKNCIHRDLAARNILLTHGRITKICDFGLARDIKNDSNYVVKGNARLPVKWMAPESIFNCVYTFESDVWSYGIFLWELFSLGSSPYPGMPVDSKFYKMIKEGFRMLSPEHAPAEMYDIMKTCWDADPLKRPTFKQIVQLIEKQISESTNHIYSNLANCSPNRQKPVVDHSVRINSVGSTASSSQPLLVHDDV
T4 sequence (Q00537 whole entry): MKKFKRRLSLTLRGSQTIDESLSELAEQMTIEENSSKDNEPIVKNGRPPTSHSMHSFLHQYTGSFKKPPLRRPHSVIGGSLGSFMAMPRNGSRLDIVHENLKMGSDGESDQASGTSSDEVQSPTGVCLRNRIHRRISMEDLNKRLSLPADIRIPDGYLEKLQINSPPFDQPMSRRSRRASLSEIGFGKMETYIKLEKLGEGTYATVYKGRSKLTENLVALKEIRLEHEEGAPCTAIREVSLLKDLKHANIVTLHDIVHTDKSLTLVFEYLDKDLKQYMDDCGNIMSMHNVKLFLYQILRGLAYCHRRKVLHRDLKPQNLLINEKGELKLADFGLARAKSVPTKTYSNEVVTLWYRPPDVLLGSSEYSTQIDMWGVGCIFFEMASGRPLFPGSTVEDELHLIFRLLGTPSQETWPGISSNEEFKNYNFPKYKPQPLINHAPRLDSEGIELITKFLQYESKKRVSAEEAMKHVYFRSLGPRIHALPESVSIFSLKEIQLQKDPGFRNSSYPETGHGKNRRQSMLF
T1 sequence (P36507 whole entry): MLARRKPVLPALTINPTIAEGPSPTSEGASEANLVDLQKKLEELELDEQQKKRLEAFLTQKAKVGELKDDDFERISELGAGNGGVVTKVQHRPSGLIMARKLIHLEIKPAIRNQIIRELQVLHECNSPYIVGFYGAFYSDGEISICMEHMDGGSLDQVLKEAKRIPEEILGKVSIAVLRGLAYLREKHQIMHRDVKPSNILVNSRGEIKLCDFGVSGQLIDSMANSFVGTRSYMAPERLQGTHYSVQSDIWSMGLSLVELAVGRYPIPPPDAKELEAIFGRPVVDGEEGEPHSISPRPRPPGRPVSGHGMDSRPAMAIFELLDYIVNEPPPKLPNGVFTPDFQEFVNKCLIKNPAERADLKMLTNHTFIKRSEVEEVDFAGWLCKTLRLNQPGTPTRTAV

Row | SMILES | remaining binding at 10 µM [1] | score (%) [2] | remaining binding at 10 µM [3] | remaining binding at 10 µM [4] | remaining binding at 10 µM [5] | remaining binding at 10 µM [6] | remaining binding at 10 µM [7] | remaining binding at 10 µM [8] | score (%) [9]
1 | CCN1CCN(Cc2ccc(NC(=O)c3ccc(C)c(NC(=O)c4cncc(-c5cccs5)c4)c3)cc2C(F)(F)F)CC1 [ALW-II-41-27] | > 30% | nb (Hits values higher than 30% were considered negative (no binding: nb)) | > 30% | > 30% | > 30% | > 30% | 0.05% | > 30% | 20%
2 | CCN1CCN(Cc2ccc(NC(=O)c3ccc(C)c(C#Cc4cccnc4)c3)cc2C(F)(F)F)CC1 [XMD15-44] | > 30% | nb (Hits values higher than 30% were considered negative (no binding: nb)) | 58% | 8.2% | 3.4% | 41% | 0% | 100% | 8.2%
3 | CCN1CCN(Cc2ccc(NC(=O)c3ccc(C)c(/C=C/c4cnc5[nH]ccc5c4Cl)c3)cc2C(F)(F)F)CC1 [HG-6-63-01, (E)-3-(2-(4-chloro-1H-pyrrolo[2,3-b]pyridin-5-yl)vinyl)-N-(4-((4-ethylpiperazin-1-yl)methyl)-3-(trifluoromethyl)phenyl)-4-methylbenzamide] | > 30% | 8.2% | 5% | > 30% | 0.25% | 28% | 0% | > 30% | 9.6%
